Experimental data from patent US20070281992A1, “COMBINATION OF GYRASE B INHIBITORS AND PROTEIN SYNTHESIS INHIBITORS AND USES THEREOF” (priority 2006, published 2007).
Like-named read-outs stand apart in the source and are kept apart here.

Assays:
Type in all cases: cell-based
[1] = test system: Linezolid-Resistant Staphylococcus aureus Isolates; assay: MIC assay (NCCLS broth dilution), LRSA isolates; conditions: Staphylococcus aureus; for MIC: read-out: Minimal Inhibitory Concentration
Description: (§1) Antibiotics: novobiocin, tetracycline, minocycline, oxacillin, and vancomycin were all purchased from Sigma-Aldrich. Linezolid was obtained from Pfizer, Inc. Novobiocin/tetracycline and novobiocin/minocycline were tested in a 2.5:1 ratio to mimic the serum levels. (Vavra, J. J., 1967, Development of resistance to novobiocin, tetracycline, and novobiocin-tetracycline combinations in Staphylococcus aureus populations, J. Bacteriol 93(3):801). Compounds were tested across a concentration range consisting of 11 two-fold serial dilutions of test agent.
(§2) Stock solutions were prepared in sterile deionized water; novobiocin stock concentration was 1600 μg/mL and all other drugs stock solutions were prepared at 640 μg/mL. The stock solutions were allowed to sit at room temperature for one hour to auto-sterilize prior to use in the test. All compounds were in solution in water. The control agent was vancomycin hydrochloride, Sigma Chemical Lot # 015K0825.
(§3) The test organisms for the assay were 52 MSSA, 52 MRSA, 8 VISA, 7 VISE, and 3 LRSA isolates. Quality control strains included Staphylococcus aureus 0100 (ATCC 29213) and Enterococcus faecalis (ATCC 29212).
(§4) The MIC assay was performed according to published NCCLS guidelines. (National Committee for Clinical Laboratory Standards, Methods for Dilution Antimicrobial Susceptibility Tests for Bacteria that Grow Aerobically; Approved Standard-Sixth Edition, NCCLS Document M7-A6 [ISBN 1-56238-486-4], NCCLS, 940 West Valley Road, Suite 1400, Wayne, Pa. 19087-1898 USA, 2003). The test medium was Mueller Hinton II Broth for all organisms.

[2] = test system: Unconfirmed Vancomycin-intermediate Staphylococcus epidermidis Isolates; assay: MIC assay (NCCLS broth dilution), unconfirmed VISE isolates; conditions: for MIC: read-out: Minimal Inhibitory Concentration
Description: as §1, §2, §3, §4

[3] = test system: Methicillin-Susceptible Staphylococcus aureus Isolates; assay: MIC assay (NCCLS broth dilution), MSSA clinical isolates; conditions: for MIC: read-out: Minimal Inhibitory Concentration
Description: as §1, §2, §3, §4

[4] = test system: Unconfirmed Vancomycin-intermediate Staphylococcus aureus Isolates; assay: MIC assay (NCCLS broth dilution), unconfirmed VISA isolates; conditions: for MIC: read-out: Minimal Inhibitory Concentration
Description: as §1, §2, §3, §4

[5] = test system: Vancomycin-intermediate Staphylococcus aureus Isolates; assay: MIC assay (NCCLS broth dilution), VISA isolates; conditions: for MIC: read-out: Minimal Inhibitory Concentration
Description: as §1, §2, §3, §4

[6] = test system: Vancomycin-intermediate Staphylococcus epidermidis Isolates; assay: MIC assay (NCCLS broth dilution), VISE isolates; conditions: for MIC: read-out: Minimal Inhibitory Concentration
Description: as §1, §2, §3, §4

[7] = Staphylococcus aureus, 52 MSSA isolates, combinations at 2.5:1, given as NB/partner

CC(=O)NC[C@H]1CN(c2ccc(N3CCOCC3)c(F)c2)C(=O)O1 [LZD, linezolid]
MIC ([1]; LRSA isolate 1651, 24FEB06): 16 µg/mL | MIC ([1]; LRSA isolate 1652, 24FEB06): 32 µg/mL | MIC ([1]; LRSA isolate 1725, 24FEB06): 32 µg/mL | MIC50 ([1]; 3 LRSA isolates, combinations at 2.5:1): 32 µg/mL | MIC Range ([2]; 3 unconfirmed VISE isolates, combinations at 2.5:1): 1 to 2 µg/mL | MIC ([2]; Staphylococcus epidermidis, Unconfirmed VISE isolate 2024, 09MAR06): 1 µg/mL | MIC ([2]; Staphylococcus epidermidis, Unconfirmed VISE isolate 2025, 09MAR06): 1 µg/mL | MIC ([2]; Staphylococcus epidermidis, Unconfirmed VISE isolate 2026, 03MAR06): 2 µg/mL | MIC50 ([2]; Staphylococcus epidermidis, 3 unconfirmed VISE isolates, combinations at 2.5:1): 1 µg/mL | MIC Range ([3]; 52 MSSA isolates, Mueller Hinton II Broth, combinations at 2.5:1, given as NB/partner): 1 to 4 µg/mL | MIC ([3]; Staphylococcus aureus, MSSA isolate 133, 03MAR06): 2 µg/mL | MIC ([3]; Staphylococcus aureus, MSSA isolate 134, 03MAR06): 2 µg/mL | MIC ([3]; Staphylococcus aureus, MSSA isolate 135, 03MAR06): 4 µg/mL | MIC ([3]; Staphylococcus aureus, MSSA isolate 753, 22FEB06): 2 µg/mL | MIC ([3]; Staphylococcus aureus, MSSA isolate 754, 22FEB06): 4 µg/mL | MIC ([3]; Staphylococcus aureus, MSSA isolate 754, 24FEB06): 4 µg/mL | MIC ([3]; Staphylococcus aureus, MSSA isolate 755, 22FEB06): 2 µg/mL | MIC ([3]; Staphylococcus aureus, MSSA isolate 756, 03MAR06): 2 µg/mL | MIC ([3]; Staphylococcus aureus, MSSA isolate 779, 22FEB06): 2 µg/mL | MIC ([3]; Staphylococcus aureus, MSSA isolate 780, 03MAR06): 4 µg/mL | MIC ([3]; Staphylococcus aureus, MSSA isolate 781, 03MAR06): 2 µg/mL | MIC ([3]; Staphylococcus aureus, MSSA isolate 782, 22FEB06): 2 µg/mL | MIC ([3]; Staphylococcus aureus, MSSA isolate 783, 22FEB06): 2 µg/mL | MIC ([3]; Staphylococcus aureus, MSSA isolate 784, 22FEB06): 2 µg/mL | MIC ([3]; Staphylococcus aureus, MSSA isolate 785, 22FEB06): 2 µg/mL | MIC ([3]; Staphylococcus aureus, MSSA isolate 786, 22FEB06): 4 µg/mL | MIC ([3]; Staphylococcus aureus, MSSA isolate 787, 22FEB06): 2 µg/mL | MIC ([3]; Staphylococcus aureus, MSSA isolate 788, 22FEB06): 2 µg/mL | MIC ([3]; Staphylococcus aureus, MSSA isolate 789, 24FEB06): 4 µg/mL | MIC ([3]; Staphylococcus aureus, MSSA isolate 790, 24FEB06): 4 µg/mL | MIC ([3]; Staphylococcus aureus, MSSA isolate 791, 24FEB06): 2 µg/mL | MIC ([3]; Staphylococcus aureus, MSSA isolate 792, 03MAR06): 2 µg/mL | MIC ([3]; Staphylococcus aureus, MSSA isolate 793, 24FEB06): 4 µg/mL | MIC ([3]; Staphylococcus aureus, MSSA isolate 794, 24FEB06): 4 µg/mL | MIC ([3]; Staphylococcus aureus, MSSA isolate 994, 22FEB06): 2 µg/mL | MIC ([3]; Staphylococcus aureus, MSSA isolate 995, 03MAR06): 2 µg/mL | MIC ([3]; Staphylococcus aureus, MSSA isolate 996, 22FEB06): 2 µg/mL | MIC ([3]; Staphylococcus aureus, MSSA isolate 997, 22FEB06): 2 µg/mL | MIC ([3]; Staphylococcus aureus, MSSA isolate 998, 03MAR06): 2 µg/mL | MIC ([3]; Staphylococcus aureus, MSSA isolate 999, 22FEB06): 2 µg/mL | MIC ([3]; Staphylococcus aureus, MSSA isolate 1000, 24FEB06): 2 µg/mL | MIC ([3]; Staphylococcus aureus, MSSA isolate 1001, 24FEB06): 2 µg/mL | MIC ([3]; Staphylococcus aureus, MSSA isolate 1002, 24FEB06): 2 µg/mL | MIC ([3]; Staphylococcus aureus, MSSA isolate 1003, 03MAR06): 2 µg/mL | MIC ([3]; Staphylococcus aureus, MSSA isolate 1005, 24FEB06): 2 µg/mL | MIC ([3]; Staphylococcus aureus, MSSA isolate 1006, 24FEB06): 2 µg/mL | MIC ([3]; Staphylococcus aureus, MSSA isolate 1007, 24FEB06): 4 µg/mL | MIC ([3]; Staphylococcus aureus, MSSA isolate 1008, 24FEB06): 2 µg/mL | MIC ([3]; Staphylococcus aureus, MSSA isolate 1009, 24FEB06): 4 µg/mL | MIC ([3]; Staphylococcus aureus, MSSA isolate 1131, 24FEB06): 2 µg/mL | MIC ([3]; Staphylococcus aureus, MSSA isolate 1132, 03MAR06): 2 µg/mL | MIC ([3]; Staphylococcus aureus, MSSA isolate 1133, 24FEB06): 2 µg/mL | MIC ([3]; Staphylococcus aureus, MSSA isolate 1134, 24FEB06): 2 µg/mL | MIC ([3]; Staphylococcus aureus, MSSA isolate 1654, 03MAR06): 2 µg/mL | MIC ([3]; Staphylococcus aureus, MSSA isolate 1656, 03MAR06): 2 µg/mL | MIC ([3]; Staphylococcus aureus, MSSA isolate 1662, 03MAR06): 2 µg/mL | MIC ([3]; Staphylococcus aureus, MSSA isolate 1663, 03MAR06): 4 µg/mL | MIC ([3]; Staphylococcus aureus, MSSA isolate 1666, 03MAR06): 4 µg/mL | MIC ([3]; Staphylococcus aureus, MSSA isolate 1667, 03MAR06): 4 µg/mL | MIC ([3]; Staphylococcus aureus, MSSA isolate 1668, 03MAR06): 4 µg/mL | MIC ([3]; Staphylococcus aureus, MSSA isolate 1671, 03MAR06): 2 µg/mL | MIC ([3]; Staphylococcus aureus, MSSA isolate 1728, 03MAR06): 1 µg/mL | MIC ([3]; Staphylococcus aureus, MSSA isolate 1728, retest 09MAR06): 1 µg/mL | MIC50 [3, 7]: 2 µg/mL | MIC90 [3, 7]: 4 µg/mL | MIC Range ([4]; 6 unconfirmed VISA isolates (vancomycin MIC 4 ug/ml), combinations at 2.5:1): 1 to 4 µg/mL | MIC ([4]; Staphylococcus aureus, Unconfirmed VISA isolate 2013, 03MAR06): 2 µg/mL | MIC ([4]; Staphylococcus aureus, Unconfirmed VISA isolate 2014, 03MAR06): 2 µg/mL | MIC ([4]; Staphylococcus aureus, Unconfirmed VISA isolate 2015, 03MAR06): 1 µg/mL | MIC ([4]; Staphylococcus aureus, Unconfirmed VISA isolate 2016, 03MAR06): 4 µg/mL | MIC ([4]; Staphylococcus aureus, Unconfirmed VISA isolate 2017, 03MAR06): 2 µg/mL | MIC ([4]; Staphylococcus aureus, Unconfirmed VISA isolate 2019, 03MAR06): 1 µg/mL | MIC50 ([4]; Staphylococcus aureus, 6 unconfirmed VISA isolates (vancomycin MIC 4 ug/ml), combinations at 2.5:1): 2 µg/mL | MIC Range ([5]; 2 VISA isolates, combinations at 2.5:1, given as NB/partner): 1 to 2 µg/mL | MIC ([5]; Staphylococcus aureus, VISA isolate 2012, 03MAR06): 1 µg/mL | MIC ([5]; Staphylococcus aureus, VISA isolate 2018, 03MAR06): 2 µg/mL | MIC50 ([5]; Staphylococcus aureus, 2 VISA isolates, combinations at 2.5:1, given as NB/partner): 1 µg/mL | MIC Range ([6]; 4 VISE isolates, combinations at 2.5:1): 1 to 2 µg/mL | MIC ([6]; Staphylococcus epidermidis, VISE isolate 2020, 09MAR06): 2 µg/mL | MIC ([6]; Staphylococcus epidermidis, VISE isolate 2021, 09MAR06): 1 µg/mL | MIC ([6]; Staphylococcus epidermidis, VISE isolate 2022, 03MAR06): 2 µg/mL | MIC ([6]; Staphylococcus epidermidis, VISE isolate 2023, 03MAR06): 2 µg/mL | MIC50 ([6]; Staphylococcus epidermidis, 4 VISE isolates, combinations at 2.5:1): 2 µg/mL
